Data from a melting point compilation (Tetko et al.; mined from patent text by program, amines drawn as free bases though some values may be those of a salt).

First: COc1cc(Nc2c(C#N)cnc3cc(-c4ccc(CN5CCOCC5)cc4)c(OC)cc23)c(Cl)cc1Cl
Second: CC(=O)c1ccc2c(c1)c1cc(-c3ccc(Cl)cc3Cl)c(=O)n(C)c1n2C
The melting point of the first is lower: 108 to 110 °C for the first, 254 to 255 °C for the second.

First: CC(C)CNC(=O)CC1Sc2sc(S(N)(=O)=O)cc2NC1=O (centres undefined)
Second: COC(=O)C1Sc2cc(Cl)ccc2OCC1=O (centres undefined)
The melting point of the first is higher: greater than 250 °C for the first, 92 to 94 °C for the second.

First: COc1ccc2c(-c3ccccc3F)csc2c1Cl
Second: O=C1c2ccccc2C(=O)N1CC(Br)(c1ccccc1)C(F)Br (centres undefined)
The melting point of the first is lower: 136 to 137 °C for the first, 163 to 164 °C for the second.

Compared with `CNC(=O)C1=CC(C)(C(F)(F)F)Oc2ccc([N+](=O)[O-])cc21` (centres undefined), `COc1cc(C(C)(C)CNC(=O)c2cccc(Br)c2)cc2c1OC(C)(C)C2` is lower in melting point: 196 to 197 °C for the first, 157 to 163 °C for the second.

First: CCCCC(=O)OC1(C(C)=O)C(C)CC2C3CCC4=CC(=O)C=CC4(C)C3(Cl)C(Cl)CC21C (centres undefined)
Second: CCC1(C)CC2(NC(=O)N(C)C2=O)C(C)C(C)(CC)N1 (centres undefined)
The melting point of the first is higher: 170 to 172 °C for the first, 137 to 142 °C for the second.

First: COC(=O)C(=O)NCCSC(c1ccccc1)c1ccccc1
Second: CCOC(=O)Cn1ccn2nc(-c3ccccc3)cc12
The melting point of the first is higher: 88 to 89 °C for the first, 85 to 87 °C for the second.

Compared with `O=Cc1c(Cl)cc(O)c(O)c1Cl`, `CCCCc1cc2cc(O)c(Cl)c(Cl)c2s1` is lower in melting point: 213 to 215 °C for the first, 35 °C for the second.

Compared with `CCCCNC(=O)NS(=O)(=O)c1ccc(CCNC(=O)N2Cc3ccccc3C2=O)cc1`, `COC(=O)Cc1ccc(OCCNC(=O)C2Cc3ccccc3N2S(=O)(=O)c2ccc(-c3cccc(C(F)(F)F)c3)c(Cl)c2)cc1` (centres undefined) is lower in melting point: 188 to 190 °C for the first, 60 °C for the second.

First: Cc1c(CCO)c(=O)oc2cc(O)cc(O)c12
Second: COc1cc(C)c2cc(C(=O)c3ccc(C(=O)O)cc3)ccc2c1C
The melting point of the first is higher: 243 to 245 °C for the first, 240 °C for the second.

Compared with `COC(=O)c1coc(-c2ccc(NS(=O)(=O)c3sc4ccc(F)cc4c3C)c(S(C)(=O)=O)c2)n1`, `Cc1c(C(=O)O)ccc(S(C)(=O)=O)c1-c1ccon1` is lower in melting point: 290 to 292 °C for the first, 150 to 151 °C for the second.

First: CC(=Cc1ccccc1)COc1cc(C)c(NC=O)c(C)c1C
Second: CCOC(=O)CN(C=C(C(=O)OCC)C(=O)OCC)N=Cc1ccccc1
The melting point of the first is higher: 152 to 154 °C for the first, 105 to 106 °C for the second.

First: CC(C)n1cncc1CO
Second: CCCCN(Cc1ccc(-c2ccccc2-c2nnn[nH]2)cc1)c1ncncc1C(=O)OCC
The melting point of the first is lower: 83 to 84 °C for the first, 109 to 111 °C for the second.

First: NC1=NN(c2ccccc2)C(c2ccc(Cl)c(Cl)c2)C1 (centres undefined)
Second: C(#Cc1ccncc1)c1ccccc1
The melting point of the first is higher: 150 to 152 °C for the first, 51 to 53 °C for the second.

First: CS(=O)(=O)c1ccc(-c2cc(=O)n(C3CCCCC3)nc2-c2ccc(F)cc2)cc1
Second: CS(=O)(=O)Nc1ccc(OC2CCCC2)cc1
The melting point of the first is lower: 86 to 90 °C for the first, 140 to 142 °C for the second.

Compared with `O=C(O)CS(=O)(=O)c1cccc(C(=O)C2CCC3(CCNCC3)CC2)c1`, `O=c1[nH]c(N2CCC(N3CCCCC3)CC2)cc2ccccc12` is higher in melting point: 134 to 138 °C for the first, greater than 200 °C for the second.

First: FC(F)(F)COc1cc(-c2cc(C(F)(F)F)n3cnc(-c4ccncc4)c3n2)ccc1C(F)(F)F
Second: O=C(O)Cc1c(C(=O)O)c2cc(Oc3ccc(C(F)(F)F)cc3)ccc2n1-c1ccc(OC(F)(F)F)cc1
The melting point of the first is lower: 233 °C for the first, 257 to 259 °C for the second.

Compared with `CCCc1c(OCCOc2cccc(C(=O)NCCCCc3cccnc3)c2)ccc(C(C)=O)c1O`, `Cc1ccc(Cc2cnc(NCCCNc3ccccn3)[nH]c2=O)cn1` is higher in melting point: 90 °C for the first, 163 to 165 °C for the second.

First: O=C(NCc1cccs1)[C@@H]1CCCN(c2cccc3c2C(=O)N(Cc2ccncc2)C3=O)C1
Second: Nc1ccc(C(CC2CCCC2)C(=O)O)cc1 (centres undefined)
The melting point of the first is higher: 193 to 194 °C for the first, 167 to 169 °C for the second.

Compared with `NC(=O)CNC(=O)c1ccccc1I`, `CCCCCCCCCCCCCCCCOc1ccccc1-c1ccccc1` is lower in melting point: 183 to 185 °C for the first, 35 to 37 °C for the second.

For `CCOCc1c(-c2ccc(OC(F)F)c(OC3CC3)c2)[nH]c2cn[nH]c(=O)c12`, the melting point was 141 to 143 °C.
